Reference: patent US20060019938A1, “Estrogen administration for treating male cognitive dysfunction or improving male cognitive function” (priority 2003, published 2006)

Experiments:
Format in all cases: in vivo, human
[1] = Serum testosterone (total and free) before and after transdermal estradiol; conditions: Visit 2, after about 4 weeks transdermal estradiol, Example 2
From the text: Research subjects consisted of healthy men, and men who have been diagnosed with prostate cancer that were between the ages of 45-100. The subjects were classified into three groups: (1) Prostate cancer patients progressing on ADT and before and after starting second line therapy with transdermal estradiol as described above; (2) Prostate cancer patients continuing ADT; and (3) Age-matched healthy controls. The treatment regimen of these men was not modified as part of their participation in this study. […]
(§1) The monitoring was similar as described above in connection with example 1. Certain cognitive functions of the patients were evaluated at the beginning of the study and then approximately 4 weeks later. In the case of patients receiving estradiol treatments, the patients were evaluated prior to the initial estradiol and then approximately 4 weeks after starting estradiol treatment. Verbal memory was assessed using the immediate Paragraph Recall test and working memory was assessed using the Trails tests. Serum estradiol concentration was also measured after approximately 4 weeks of treatment, as well as other standard monitoring measurements.

[2] = tested on: prostate cancer patients progressing on ADT; assay: Profile of Mood States (POMS) test, confusion subscale; conditions: Example 2, prostate cancer patients progressing on ADT
From the text: Research subjects consisted of healthy men, and men who have been diagnosed with prostate cancer that were between the ages of 45-100. The subjects were classified into three groups: (1) Prostate cancer patients progressing on ADT and before and after starting second line therapy with transdermal estradiol as described above; (2) Prostate cancer patients continuing ADT; and (3) Age-matched healthy controls. The treatment regimen of these men was not modified as part of their participation in this study. Exclusion criteria included currently taking hormone replacement, active malignancy other than prostate cancer or non-melanoma skin cancer, major surgery within last 4 weeks, and score less than 25 on the Mini-Mental State Exam (a screening measure for dementia). The participant characteristics are shown below in Table 3.
The estradiol administration was the same as in example 1.
Mood was assessed using a Profile of Mood States (POMS) test as described in McNair et al, Profile of mood states manual (Education and Industrial Testing Service, San Diego (1971)). Participants completed the POMS test at both testing sessions (i.e., beginning of study and 4 weeks later). The scale asks participants to rate how they felt in the last week. Responses are categorized into six subscales (tension-anxiety, depression, anger, fatigue, confusion and vigor). […]

[3] = tested on: men with androgen-independent prostate cancer; assay: Trails working memory test
From the text: A further illustrative working memory test is known as the Trails test. This test is a dot-to-dot paper pencil test where the subject connects dots (1-2-3-4 etc.). On a second measure they connect dots but the dots are labeled alternately in letters and numbers so they have to shift their cognitive set and keep in mind where they are in each set: 1 to A to 2 to B to 3 etc. Their score is the number of seconds to complete the dot to dot. Estradiol was transdermally administered to nineteen men with androgen-independent prostate cancer following a protocol outlined below. Standard prophylactic breast irradiation was offered to all patients prior to therapy to reduce the risk of gynecomastia. […] Certain cognitive functions of the patients were evaluated prior to starting estradiol treatment and approximately 4 weeks after starting estradiol treatment. Specifically, memory was assessed using immediate and delayed Paragraph Recall test and working memory was assessed using the SOP and Trails tests. Serum estradiol concentration was also measured after approximately 4 weeks of treatment, as well as other standard monitoring measurements. […] Certain cognitive functions of the patients were evaluated at the beginning of the study and then approximately 4 weeks later. […] Verbal memory was assessed using the immediate Paragraph Recall test and working memory was assessed using the Trails tests. […]

[4] = tested on: men with androgen-independent prostate cancer; assay: Toxicity monitoring (thromboembolic complications) during transdermal estradiol; conditions: 0.6 mg estradiol/day transdermal, at time of most recent analysis
Experimental: (§2) Standard prophylactic breast irradiation was offered to all patients prior to therapy to reduce the risk of gynecomastia. Six Climara® estradiol patches (25.0 cm^2, 7.6 mg estradiol per patch) were adhered to the patients once every 7 days for a period of at least 4 weeks for a dosage of 0.6 mg estradiol/day (in vivo estradiol delivery per patch is 0.1 mg/day).
(§3) Certain cognitive functions of the patients were evaluated prior to starting estradiol treatment and approximately 4 weeks after starting estradiol treatment. Specifically, memory was assessed using immediate and delayed Paragraph Recall test and working memory was assessed using the SOP and Trails tests. Serum estradiol concentration was also measured after approximately 4 weeks of treatment, as well as other standard monitoring measurements. The Paragraph Recall test was performed as described above. The SOP test was performed as described above and was computer-administered with 8 and 10 card sets. Each card of the set was depicted on a computer screen and the subject selected the drawing for each card by pressing a corresponding number on the keyboard. The Trails test was performed as described above.

[5] = tested on: men with androgen-independent prostate cancer; assay: Paragraph Recall test (immediate and delayed; long-term/verbal memory)
Experimental: One illustrative declarative memory test for assessing the medial temporal lobe memory system is known as a Paragraph Recall Task. This task is a subtest of the Weschler Memory Scale—Revised. A subject is read a short story and then immediately asked to recall the story. After an approximate 30 minute retention interval, they are asked to recall the story again. The recall responses are scored for number of story items correctly recalled and there is a standard scoring system. There are two stories for each administration so the total score is the total of both stories combined; one for immediate memory; and one for delayed memory.
(§4) Estradiol was transdermally administered to nineteen men with androgen-independent prostate cancer following a protocol outlined below.
as §2, §3, §1

[6] = tested on: men with androgen-independent prostate cancer; assay: Subject Ordered Pointing (SOP) working memory test
From the text: An illustrative working memory test is known as Subject Ordered Pointing (SOP). SOP is described, for example, in Janowsky et al., “Sex steroids modify working memory,” J Cogn Neuroscience 12(3):407-14, 2000 and Petrides et al., “Deficits on subject-ordered tasks after frontal- and temporal-lobe lesions in man,” Neuropsychologia 20:249-62, 1982. In general, subjects are presented with stacks of cards (6, 8, 10 or 12 cards/sets). […] The subject is to touch one drawing on each card in any order, but not touch the same drawing on subsequent cards in the set. Subjects err when they touch a drawing that had been touched on a previous card in the set. Therefore, the subject has to remember previous drawings touched while planning a future response. Subjects repeat each 6, 8, 10, and 12 card set three times. The total number of errors across all card sets is the measure of interest. […] Subjects are instructed to do the task at their own pace, and to try to not go too quickly or too slowly.
as §4, §2
as §3, with “Each card of the set was depicted on a computer screen and the subject selected the drawing for each card by pressing a corresponding number on the keyboard. The Trails test was performed as described above.” left out

[7] = Serum estradiol concentration during transdermal estradiol treatment
Experimental: Standard prophylactic breast irradiation was offered to all patients prior to therapy to reduce the risk of gynecomastia. Six […]® estradiol patches (25.0 cm^2, 7.6 mg estradiol per patch) were adhered to the patients once every 7 days for a period of at least 4 weeks for a dosage of 0.6 mg estradiol/day (in vivo estradiol delivery per patch is 0.1 mg/day). Certain cognitive functions of the patients were evaluated prior to starting estradiol treatment and approximately 4 weeks after starting estradiol treatment. Specifically, memory was assessed using immediate and delayed Paragraph Recall test and working memory was assessed using the SOP and Trails tests. Serum estradiol concentration was also measured after approximately 4 weeks of treatment, as well as other standard monitoring measurements. The Paragraph Recall test was performed as described above. The SOP test was performed as described above and was computer-administered with 8 and 10 card sets. Each card of the set was depicted on a computer screen and the subject selected the drawing for each card by pressing a corresponding number on the keyboard. The Trails test was performed as described above. The monitoring was similar as described above in connection with example 1. Certain cognitive functions of the patients were evaluated at the beginning of the study and then approximately 4 weeks later. In the case of patients receiving estradiol treatments, the patients were evaluated prior to the initial estradiol and then approximately 4 weeks after starting estradiol treatment. Verbal memory was assessed using the immediate Paragraph Recall test and working memory was assessed using the Trails tests. Serum estradiol concentration was also measured after approximately 4 weeks of treatment, as well as other standard monitoring measurements.

[8] = Example 2, prostate cancer patients progressing on ADT
[9] = Example 1, men with AIPC treated with estradiol
[10] = on estradiol vs pre-treatment, about 4 weeks
[11] = on estrogen, about 4 weeks, 0.6 mg estradiol/day transdermal, men with AIPC
[12] = on estrogen, about 4 weeks, 0.6 mg/day transdermal, data from 18 subjects

- Estradiol (serum) ([7]; Visit 2, after about 4 weeks transdermal estradiol, Example 2): 428.8 (280.7) pg/mL
- concentration at 1 month ([7]; human, serum, other: transdermal, 0.6 mg/day, 1 month of treatment, Example 1, read-out: Estradiol, mean ± 95% CI): 0.46 ± 0.126 ng/mL
- concentration at 2 months ([7]; human, serum, other: transdermal, 0.6 mg/day, 2 months of treatment, Example 1, read-out: Estradiol, mean ± 95% CI): 0.371 ± 0.115 ng/mL
Compound: C[C@]12CC[C@@H]3c4ccc(O)cc4CC[C@H]3[C@@H]1CC[C@@H]2O [Estradiol, estra-1,3,5(10)-triene-3,17β-diol]
- Free T [1]: 3.5 (1.9) pmol/L
- Total T [1]: 9.7 (3.9) ng/dL
- confusion (POMS, FIGS. 3 and 4) [2]: trend for men receiving estradiol to report a decrease in confusion
- working memory (Trails test, FIG. 1) [3, 8]: did not affect working memory
- Trails (seconds B-A) ([3]; on estrogen, about 4 weeks, 0.6 mg/day transdermal, data from 15 subjects): 69.9 s
- thromboembolic complications or other significant toxicity [4]: no thromboembolic complications or other significant toxicity issues
- long-term memory [5, 9]: significant improvement in their long-term memory
- verbal memory performance (immediate Paragraph Recall, FIG. 2) [5, 8]: improved verbal memory performance
- delayed Paragraph Recall test score improvement [5, 10]: 27%
- immediate Paragraph Recall test score improvement [5, 10]: 19%
- Paragraph Recall (delay; # correct) [5, 11]: 18.8 # correct
- Paragraph Recall (immediate; # correct) [5, 11]: 22.9 # correct
- working memory (Subject-Ordered and Trails tests) [6, 9]: no change in working memory
- Subject Ordered (# of errors), 8 item [6, 12]: 6.3 # of errors
- Subject Ordered (# of errors), 10 item [6, 12]: 7.0 # of errors
